Test system: HCEC
Assay: Cytoprotection of HCEC against H2O2 oxidative stress
Assay type: cell-based, human
Conditions: HCEC pretreated 24 h with 75 μM DNIC–COOH, then H2O2
Procedure: Cell viability study of MSC, N2a, and HCEC cells with or without the treatment of DNIC–COOH was performed using a Cell Counting Kit-8 (IMT Formosa New Materials Co., Ltd., Taiwan) according to the manufacturer’s protocol. Briefly, cells were seeded into a 96-well plate at a density of 4 × 10^3 cells/well for MSC, 1 × 10^4 cells/well for N2a, and 8 × 10^3 cells/well for HCEC, respectively, and incubated overnight. On the next day, cells were treated with DNIC–COOH at different concentrations and incubated for 24 h. The culture medium was then removed before the cells were washed with DPBS. After addition of fresh medium containing CCK-8 solution to the cells and incubation for 1–3 h, the absorbance at 450 nm was then measured on a microplate reader (SpectraMax iD3, Molecular Devices, San Jose, CA) with a reference wavelength of 650 nm. […]
To investigate the capacity of DNIC preconditioning to protect the MSC cells against elevated oxidative stress, cells were pretreated with 2.5 μM of DNIC–COOMe or 100 μM of DNIC–COOH for 8 h before being incubated with 250 μM H2O2 for another 24 h. Cell viability was evaluated by live/dead staining or CCK-8 assay. In a similar manner, DNIC-induced cytoprotective effect in HCECs was evaluated through pretreatment of 1 μM of DNIC–COOMe or 75 μM of DNIC–COOH for 24 h.

Compound: O=[N][Fe]1([N]=O)[SH](CCC(=O)O)[Fe]([N]=O)([N]=O)[SH]1CCC(=O)O (stereo not shown) [DNIC–COOH, [(NO)2Fe(μ-SCH2CH2COOH)2Fe(NO)2]]
- survival under mimic oxidative stress condition: enhanced survival
